Reference: patent US20130131161A1, “METHODS AND COMPOSITIONS FOR CARDIOVASCULAR DISEASES AND CONDITIONS” (priority 2009, published 2013)
Where “and” joins values, the source holds several entries; their conditions need not be identical. Identical values can stand only once.

System: Human umbilical vein endothelial cells (HUVECs)
Assay: eNOS activity analysis: NO, ONOO− and NO/ONOO− release from HUVECs of 50 genotyped donors in response to LA-419 (Example 2)
Format: cell-based
Experimental: Concurrent measurements of NO and ONOO^− were carried out with tandem electrochemical nanosensors combined into one working unit with a total diameter of 200-500 nm (FIG. 1). Their design was based on previously developed and well-characterized chemically modified carbon-fiber technology (Malinski and Taha, 1992; Lvovich and Scheeline, 1997). Each of the nanosensors was made by depositing a sensing material on the tip of a carbon fiber (length 4-5 μm, diameter 0.2-0.5 μm). The fibers were sealed with nonconductive epoxy and electrically connected to copper wires with conductive silver epoxy. A conductive film of polymeric nickel (II) tetrakis(3-methoxy-4-hydroxyphenyl)porphyrin for the NO-sensor and polymeric film of Mn (III) [2.2]paracyclophanylporphyrin was used for the ONOO^−-sensor.
A module of NO/ONOO^− nanosensors (diameter 1-2 μm) with a platinum wire (0.1 mm) counter electrode and saturated calomel reference electrode (SCE) were applied. Differential pulse voltammetry (DPV) and amperometry were performed with a computer-based Gamry VFP600 multichannel potentiostat. DPV was used to measure the basal NO and ONOO^− concentrations, and amperometry was used to measure changes in NO and ONOO^− concentrations from its basal level with time. The DPV current at the peak potential characteristic for NO oxidation (0.65 V) and ONOO^− reduction (−0.45 V) was directly proportional to the local concentrations of these compounds in the immediate vicinity of the sensor. Linear calibration curves (current vs. concentration) were constructed for each sensor from 10 nM to 3 μM before and after measurements with aliquots of NO and ONOO^− standard solutions, respectively. The detection limit of the sensors was 1.0 nM.
The quantification of each analyte (concentration in nM) was performed using a maximum current from amperograms and standard calibration curves. A reproducibility of measurements with nanosensors is relatively high (between 5-12%). […] The sensors were slowly raised 5±2 μm from the surface of a single endothelial cell. The eNOS agonist, calcium ionophore A23187 (CaI) as well as the different drugs were then added to the surrounding media at the cell surface with a nanoinjector that was also positioned by a computer controlled-micromanipulator.
This example describes the genotype-specific response of the three major eNOS variants to 1 μM and 5 μM concentrations of LA-419. The three major genetic polymorphisms studied were the Glu298Asp variant (E298D or 894G→T) in exon 7 of […], the −786T→C variant in the promoter region, and the intron 4 polymorphism (VNTR). All of these variants have possible effects on the cardiovascular system and endothelial dysfunction. For this study, human umbilical vein endothelial cells (HUVECs) from 50 donors between 18 and 32 years of age were used.
For the analysis several analysis techniques were employed. First, the effect of genotype on NO and ONOO^− release was explored within the different concentrations of LA-419 (control, 1 μM, 5 μM), calculated as the average peak release (nmols/L) of NO, ONOO^−, and NO/ONOO^−. The effect of genotype on the net increase in NO, ONOO^−, and NO/ONOO^− for LA-419 (1 μM and 5 μM) as compared to control was also measured. In addition, an analysis was done on the effect of genotype on the % change in NO, ONOO^−, and NO/ONOO^− production for LA-419 (1 μM and 5 μM), calculated as:
% Change=[(avg. LA-419−avg. control)/(avg. control)]*100
Finally, an evaluation was undertaken concerning the effect of genotype on the production of NO, ONOO^−, and NO/ONOO^− as the fold difference of control for LA-419 (1 μM and 5 μM), calculated as:
Fold Difference=(avg. LA-419)/(avg. control)
Within each calculation technique the results were compared for statistical significance using a non-parametric ANOVA Kruskal-Wallace test or a non-parametric Mann-Whitney U test. Statistical significance was set at a p-value <0.05 in a two-tailed distribution. […]

[1] = (LA-419 1 μM)/(control), T-786C T/C & C/C, n=27
[2] = (LA-419 1 μM)/(control), T-786C T/C, n=23
[3] = (LA-419 1 μM)/(control), T-786C T/T & T/C, n=45
[4] = (LA-419 1 μM)/(control), T-786C T/T, n=22
[5] = (LA-419 5 μM)/(control), Combination of all G894T + T-786C genotypes but G/G + T/T, n=31
[6] = (LA-419 5 μM)/(control), Combination of all G894T + T-786C genotypes but T/T + C/C, n=46
[7] = (LA-419 5 μM)/(control), G894T + T-786C G/G + T/C, n=8
[8] = (LA-419 5 μM)/(control), G894T + T-786C G/G + T/T, n=18
[9] = (LA-419 5 μM)/(control), G894T + T-786C G/T + C/C, n=1
[10] = (LA-419 5 μM)/(control), G894T + T-786C G/T + T/C, n=13
[11] = (LA-419 5 μM)/(control), G894T + T-786C G/T + T/T, n=4
[12] = (LA-419 5 μM)/(control), G894T + T-786C T/T + C/C, n=1
[13] = (LA-419 5 μM)/(control), G894T + T-786C T/T + C/C, n=3
[14] = (LA-419 5 μM)/(control), G894T + T-786C T/T + T/C, n=2
[15] = (LA-419 5 μM)/(control), G894T G/G & G/T, n=44
[16] = (LA-419 5 μM)/(control), G894T G/G, n=26
[17] = (LA-419 5 μM)/(control), G894T G/T & T/T, n=23
[18] = (LA-419 5 μM)/(control), G894T G/T, n=18
[19] = (LA-419 5 μM)/(control), G894T T/T, n=5
[20] = (LA-419 5 μM)/(control), Intron 4 a/a, n=1
[21] = (LA-419 5 μM)/(control), Intron 4 a/a, n=3
[22] = (LA-419 5 μM)/(control), Intron 4 b/a, a/a, c/c, n=14
[23] = (LA-419 5 μM)/(control), Intron 4 b/a, n=10
[24] = (LA-419 5 μM)/(control), Intron 4 b/b, b/a, c/c, n=42
[25] = (LA-419 5 μM)/(control), Intron 4 b/b, n=31
[26] = (LA-419 5 μM)/(control), Intron 4 c/c, n=1
[27] = (LA-419 5 μM)/(control), T-786C C/C, n=1

CC(=O)SC1COC2C(O[N+](=O)[O-])COC12 (stereo not drawn) [LA-419, S-(6-Nitro-oxi-hexahydro-furo[3,2-b]furan-3-1-il)thioacetate]
Fold difference ONOO− (mean ± sd) ((LA-419 1 μM)/(control), T-786C C/C, n=4): 1.11 (0.44) | Fold difference NO (mean ± sd) [1]: 1.15 (0.28) | Fold difference NO/ONOO− (mean ± sd) [1]: 1.45 (0.75) | Fold difference ONOO− (mean ± sd) [1]: 0.91 (0.31) | Fold difference NO (mean ± sd) [2]: 1.18 (0.30) | Fold difference NO/ONOO− (mean ± sd) [2]: 1.53 (0.78) | Fold difference ONOO− (mean ± sd) [2]: 0.88 (0.28) | Fold difference NO (mean ± sd) [3]: 1.14 (0.25) | Fold difference NO/ONOO− (mean ± sd) [3]: 1.39 (0.67) | Fold difference ONOO− (mean ± sd) [3]: 0.91 (0.25) | Fold difference NO (mean ± sd) [4]: 1.09 (0.18) | Fold difference NO/ONOO− (mean ± sd) [4]: 1.25 (0.52) | Fold difference ONOO− (mean ± sd) [4]: 0.95 (0.22) | Fold difference NO (mean ± sd) [5]: 1.13 (0.06) | Fold difference NO/ONOO− (mean ± sd) [5]: 1.40 (0.14) | Fold difference ONOO− (mean ± sd) [5]: 0.81 (0.07) | Fold difference NO (mean ± sd) [6]: 1.14 (0.06) | Fold difference NO/ONOO− (mean ± sd) [6]: 1.44 (0.16) | Fold difference ONOO− (mean ± sd) [6]: 0.81 (0.07) | Fold difference NO (mean ± sd) [7]: 1.14 (0.07) | Fold difference NO/ONOO− (mean ± sd) [7]: 1.44 (0.18) | Fold difference ONOO− (mean ± sd) [7]: 0.80 (0.07) | Fold difference NO (mean ± sd) [8]: 1.17 (0.06) | Fold difference NO/ONOO− (mean ± sd) [8]: 1.50 (0.18) | Fold difference ONOO− (mean ± sd) [8]: 0.79 (0.08) and 0.79 (0.06) | Fold difference NO (mean ± sd) [9]: 1.12 (0) | Fold difference NO/ONOO− (mean ± sd) [9]: 1.32 (0) | Fold difference ONOO− (mean ± sd) [9]: 0.85 (0) | Fold difference NO (mean ± sd) [10]: 1.13 (0.07) | Fold difference NO/ONOO− (mean ± sd) [10]: 1.37 (0.11) | Fold difference ONOO− (mean ± sd) [10]: 0.83 (0.04) | Fold difference NO (mean ± sd) [11]: 1.14 (0.05) | Fold difference NO/ONOO− (mean ± sd) [11]: 1.47 (0.19) | Fold difference ONOO− (mean ± sd) [11]: 0.79 (0.12) | Fold difference NO (mean ± sd) [12]: 1.08 (0) | Fold difference NO/ONOO− (mean ± sd) [12]: 1.59 (0) | Fold difference ONOO− (mean ± sd) [12]: 0.67 (0) | Fold difference NO (mean ± sd) [13]: 1.12 (0.07) | Fold difference NO/ONOO− (mean ± sd) [13]: 1.46 (0.14) | Fold difference ONOO− (mean ± sd) [13]: 0.77 (0.08) | Fold difference NO (mean ± sd) [14]: 1.12 (0.09) | Fold difference NO/ONOO− (mean ± sd) [14]: 1.29 (0.01) | Fold difference ONOO− (mean ± sd) [14]: 0.87 (0.06) | Fold difference NO (mean ± sd) [15]: 1.15 (0.06) | Fold difference NO/ONOO− (mean ± sd) [15]: 1.44 (0.16) | Fold difference ONOO− (mean ± sd) [15]: 0.80 (0.07) | Fold difference NO (mean ± sd) [16]: 1.16 (0.06) | Fold difference NO/ONOO− (mean ± sd) [16]: 1.48 (0.18) | Fold difference ONOO− (mean ± sd) [16]: 0.79 (0.07) | Fold difference NO (mean ± sd) [17]: 1.13 (0.06) | Fold difference NO/ONOO− (mean ± sd) [17]: 1.39 (0.13) | Fold difference ONOO− (mean ± sd) [17]: 0.82 (0.07) | Fold difference NO (mean ± sd) [18]: 1.13 (0.06) | Fold difference NO/ONOO− (mean ± sd) [18]: 1.39 (0.13) | Fold difference ONOO− (mean ± sd) [18]: 0.82 (0.06) | Fold difference NO (mean ± sd) [19]: 1.12 (0.07) | Fold difference NO/ONOO− (mean ± sd) [19]: 1.39 (0.13) | Fold difference ONOO− (mean ± sd) [19]: 0.81 (0.08) | Fold difference NO (mean ± sd) [20]: 1.17 (0) | Fold difference NO/ONOO− (mean ± sd) [20]: 1.39 (0) | Fold difference ONOO− (mean ± sd) [20]: 0.85 (0) | Fold difference NO (mean ± sd) [21]: 1.14 (0.04) | Fold difference NO/ONOO− (mean ± sd) [21]: 1.37 (0.04) | Fold difference ONOO− (mean ± sd) [21]: 0.83 (0.03) | Fold difference NO (mean ± sd) [22]: 1.16 (0.06) | Fold difference NO/ONOO− (mean ± sd) [22]: 1.44 (0.13) | Fold difference ONOO− (mean ± sd) [22]: 0.81 (0.05) | Fold difference NO (mean ± sd) [23]: 1.17 (0.07) | Fold difference NO/ONOO− (mean ± sd) [23]: 1.46 (0.14) | Fold difference ONOO− (mean ± sd) [23]: 0.80 (0.06) | Fold difference NO (mean ± sd) [24]: 1.14 (0.07) | Fold difference NO/ONOO− (mean ± sd) [24]: 1.43 (0.17) | Fold difference ONOO− (mean ± sd) [24]: 0.81 (0.07) | Fold difference NO (mean ± sd) [25]: 1.14 (0.07) | Fold difference NO/ONOO− (mean ± sd) [25]: 1.42 (0.18) | Fold difference ONOO− (mean ± sd) [25]: 0.81 (0.08) | Fold difference NO (mean ± sd) [26]: 1.17 (0) | Fold difference NO/ONOO− (mean ± sd) [26]: 1.53 (0) | Fold difference ONOO− (mean ± sd) [26]: 0.77 (0) | Fold difference NO (mean ± sd) [27]: 1.08 (0) | Fold difference NO/ONOO− (mean ± sd) [27]: 1.59 (0) | Fold difference ONOO− (mean ± sd) [27]: 0.67 (0)
